Laboratory results from patent publication US9604975B2, “Indolyl-pyridone derivatives having checkpoint kinase 1 inhibitory activity” (Vernalis (R&D) Ltd., priority 2009, dated 2017).

Molecular target: T1, CHK1 (Homo sapiens, UniProt O14757)
T1 construct: His; purchased Invitrogen
T1 sequence (O14757 1-476): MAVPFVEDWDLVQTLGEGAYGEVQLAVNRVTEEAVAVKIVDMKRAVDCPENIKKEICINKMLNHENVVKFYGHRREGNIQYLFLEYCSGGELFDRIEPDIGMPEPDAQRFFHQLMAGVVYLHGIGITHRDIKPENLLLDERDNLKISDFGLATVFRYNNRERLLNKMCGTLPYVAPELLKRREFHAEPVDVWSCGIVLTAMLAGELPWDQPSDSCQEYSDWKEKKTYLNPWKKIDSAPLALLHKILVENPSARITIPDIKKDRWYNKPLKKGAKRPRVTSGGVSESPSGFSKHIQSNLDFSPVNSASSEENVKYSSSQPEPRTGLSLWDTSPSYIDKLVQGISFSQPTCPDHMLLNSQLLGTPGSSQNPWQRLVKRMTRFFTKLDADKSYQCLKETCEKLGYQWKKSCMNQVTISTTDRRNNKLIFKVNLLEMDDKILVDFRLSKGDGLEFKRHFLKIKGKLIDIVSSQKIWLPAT
Assay: CHK1 Enzyme Assay (phosphorylation of Chktide peptide, 33P-ATP filter assay)
Assay type: biochemical
Details: 12.5 nM His-CHK1, 0.01 mM ATP, 40 minutes at 30° C.; read-out: CHK1 Enzyme Activity (IC50 range)
Procedure: Assays for the CHK1 kinase activity were carried out by monitoring the phosphorylation of a synthetic peptide Chktide with the amino acid sequence, […]. The assay mixture containing the inhibitor and CHK1 enzyme was mixed together in a microtiter plate in a final volume of 50 μl and incubated for 40 minutes at 30° C.
The assay mixture contained 0.01 mM unlabeled ATP, 0.5 μCi ^33P-γ-ATP, 14.8 μM Chktide, 0.1 mg/mL BSA, 50 mM Hepes-NaOH pH 7.5 and 12.5 nM His-CHK1 (Invitrogen) enzyme. The reaction was stopped by adding 50 μL of 50 mM phosphoric acid. 90 μL of the mixture was transferred to a pre-wetted 96-well multi-screen MAPHNOB filtration plate (Millipore) and filtered on a vacuum manifold. The filter plate was washed with 3 successive additions of 200 μl 50 mM phosphoric acid and then with 100 μL methanol. The filtration plate was dried for 10 min at 65° C., scintillant added and phosphorylated peptide quantified in a scintillation counter (Trilux, PerkinElmer).

**Q.** `O=C(Nc1c[nH]c(=O)c(-c2cc3cc(CN4CCCC4)ccc3[nH]2)c1)c1cnn(Cc2ccc(Cl)cc2)c1` [Example 55, 1-(4-Chloro-benzyl)-1H-pyrazole-4-carboxylic acid [6-oxo-5-(5-pyrrolidin-1-ylmethyl-1H-indol-2-yl)-1,6-dihydro-pyridin-3-yl]-amide] was tested. Which IC50 did it give?
**A.** Its IC50 is less than 100 nM.

**Q.** Which IC50 does the source give for `CCN(CCO)Cc1ccc2[nH]c(-c3cc(NC(=O)c4cnn(Cc5ccccc5)c4)c[nH]c3=O)cc2c1` [Example 56, 1-Benzyl-1H-pyrazole-4-carboxylic acid [5-(5-{[ethyl-(2-hydroxy-ethyl)-amino]-methyl}-1H-indol-2-yl)-6-oxo-1,6-dihydro-pyridin-3-yl]-amide] here?
**A.** The IC50 was less than 100 nM.

**Q.** How did the IC50 turn out when `O=C(Nc1c[nH]c(=O)c(-c2cc3cc(CN4CCCC(F)C4)ccc3[nH]2)c1)c1cnn(Cc2ccccc2)c1` (stereo not shown) [Example 57, 1-Benzyl-1H-pyrazole-4-carboxylic acid {5-[5-(3-fluoro-piperidin-1-ylmethyl)-1H-indol-2-yl]-6-oxo-1,6-dihydro-pyridin-3-yl}-amide] was run?
**A.** Its IC50 is less than 100 nM.

**Q.** How did the IC50 turn out when `CN1CCN(Cc2ccc3[nH]c(-c4cc(NC(=O)c5cnn(Cc6ccccc6)c5)c[nH]c4=O)cc3c2)CC1` [Example 58, 1-Benzyl-1H-pyrazole-4-carboxylic acid {5-[5-(4-methyl-piperazin-1-ylmethyl)-1H-indol-2-yl]-6-oxo-1,6-dihydro-pyridin-31}-amide] was run?
**A.** The IC50 was less than 100 nM.

**Q.** For `Cc1ccc(Cn2cc(C(=O)Nc3c[nH]c(=O)c(-c4cc5cc(CN6CCN(C)CC6)ccc5[nH]4)c3)cn2)cc1` [Example 59, 1-(4-Methyl-benzyl)-1H-pyrazole-4-carboxylic acid {5-[5-(4-methyl-piperazin-1-ylmethyl)-1H-indol-2-yl]-6-oxo-1,6-dihydro-pyridin-3-yl}-amide], which IC50 is on record?
**A.** The IC50 was less than 100 nM.

**Q.** With `O=C(Nc1c[nH]c(=O)c(-c2cc3cc(CN4CCC(O)CC4)ccc3[nH]2)c1)c1cnn(Cc2ccccc2)c1` [Example 60, 1-Benzyl-1H-pyrazole-4-carboxylic acid {5-[5-(4-hydroxy-piperidin-1-ylmethyl)-1H-indol-2-yl]-6-oxo-1,6-dihydro-pyridin-3-yl}-amide] as the compound, how does the IC50 read?
**A.** Its IC50 is less than 100 nM.

**Q.** For `O=C(Nc1c[nH]c(=O)c(-c2cc3cc(CNCCO)ccc3[nH]2)c1)c1cnn(Cc2ccccc2)c1` [Example 61], which IC50 is on record?
**A.** Its IC50 is less than 100 nM.

**Q.** Which IC50 does the source give for `Cc1ccc(Cn2cc(C(=O)Nc3c[nH]c(=O)c(-c4cc5cc(CN6CCN(CCO)CC6)ccc5[nH]4)c3)cn2)cc1` [Example 62, 1-(4-Methyl-benzyl)-1H-pyrazole-4-carboxylic acid (5-{5-[4-(2-hydroxy-ethyl)-piperazin-1-ylmethyl]-1H-indol-2-yl}-6-oxo-1,6-dihydro-pyridin-3-yl)-amide] here?
**A.** Its IC50 is less than 100 nM.

**Q.** For `O=C(Nc1c[nH]c(=O)c(-c2cc3cc(CN4CCCC(F)C4)ccc3[nH]2)c1)c1cnn(Cc2ccc(Cl)cc2)c1` (stereo not shown) [Example 63, 1-(4-Chloro-benzyl)-1H-pyrazole-4-carboxylic acid {5-[5-(3-fluoro-piperidin-1-ylmethyl)-1H-indol-2-yl]-6-oxo-1,6-dihydro-pyridin-3-yl}-amide], which IC50 is on record?
**A.** Its IC50 is less than 100 nM.

**Q.** `O=C(Nc1c[nH]c(=O)c(-c2cc3cc(CN4CCC(F)(F)CC4)ccc3[nH]2)c1)c1cnn(Cc2ccccc2)c1` [Example 64, 1-Benzyl-1H-pyrazole-4-carboxylic acid {5-[5-(4,4-difluoro-piperidin-1-ylmethyl)-1H-indol-2-yl]-6-oxo-1,6-dihydro-pyridin-3-yl}-amide] was tested. Which IC50 did it give?
**A.** The IC50 was less than 100 nM.

**Q.** Which IC50 does the source give for `O=C(Nc1c[nH]c(=O)c(-c2cc3cc(CN4CCN(CCO)CC4)ccc3[nH]2)c1)c1cnn(Cc2ccccc2)c1` [Example 65, 1-Benzyl-1H-pyrazole-4-carboxylic acid (5-{5-[4-(2-hydroxy-ethyl)-piperazin-1-ylmethyl]-1H-indol-2-yl}-6-oxo-1,6-dihydro-pyridin-3-yl)-amide] here?
**A.** The IC50 was less than 100 nM.

**Q.** Which IC50 does the source give for `O=C(Nc1c[nH]c(=O)c(-c2cc3cc(CN4CCN(CCO)CC4)ccc3[nH]2)c1)c1cnn(Cc2ccc(Cl)cc2)c1` [Example 66, 1-(4-Chloro-benzyl)-1H-pyrazole-4-carboxylic acid (5-{5-[4-(2-hydroxy-ethyl)-piperazin-1-ylmethyl]-1H-indol-2-yl}-6-oxo-1,6-dihydro-pyridin-3-yl)-amide] here?
**A.** Its IC50 is less than 100 nM.

**Q.** Which IC50 does the source give for `O=C(Nc1c[nH]c(=O)c(-c2cc3cc(CN4CCOCC4)ccc3[nH]2)c1)c1cnn(Cc2ccc(Cl)cc2)c1` [Example 67, 1-(4-Chloro-benzyl)-1H-pyrazole-4-carboxylic acid [5-(5-morpholin-4-ylmethyl-1H-indol-2-yl)-6-oxo-1,6-dihydro-pyridin-3-yl]-amide] here?
**A.** Its IC50 is less than 100 nM.

**Q.** `CS(=O)(=O)CCNCc1ccc2[nH]c(-c3cc(NC(=O)c4cnn(Cc5ccccc5)c4)c[nH]c3=O)cc2c1` [Example 68] was tested. Which IC50 did it give?
**A.** The IC50 was less than 100 nM.

**Q.** How did the IC50 turn out when `CC1CN(Cc2ccc3[nH]c(-c4cc(NC(=O)c5cnn(Cc6ccccc6)c5)c[nH]c4=O)cc3c2)CC(C)O1` (stereo not shown) [Example 69, 1-Benzyl-1H-pyrazole-4-carboxylic acid {5-[5-(2,6-dimethyl-morpholin-4-ylmethyl)-1H-indol-2-yl]-6-oxo-1,6-dihydro-pyridin-3-yl}-amide] was run?
**A.** Its IC50 is less than 100 nM.

**Q.** Which IC50 does the source give for `CC1CN(Cc2ccc3[nH]c(-c4cc(NC(=O)c5cnn(Cc6ccccc6)c5)c[nH]c4=O)cc3c2)CCN1C` (stereo not shown) [Example 70, 1-Benzyl-1H-pyrazole-4-carboxylic acid {5-[5-(3,4-dimethyl-piperazin-1-ylmethyl)-1H-indol-2-yl]-6-oxo-1,6-dihydro-pyridin-3-yl}-amide] here?
**A.** Its IC50 is less than 100 nM.

**Q.** `CC1CN(Cc2ccc3[nH]c(-c4cc(NC(=O)c5cnn(Cc6ccc(C(C)C)cc6)c5)c[nH]c4=O)cc3c2)CC(C)O1` (stereo not shown) [Example 72, 1-(4-isopropylbenzyl)-1H-pyrazole-4-carboxylic acid {5-[5-(2,6-dimethylmorpholin-4-ylmethyl)-1H-indol-2-yl)-6-oxo-1,6-dihydropyridin-3-yl}-amide] was tested. Which IC50 did it give?
**A.** The IC50 was less than 100 nM.

**Q.** For `CC(C)c1ccc(Cn2cc(C(=O)Nc3c[nH]c(=O)c(-c4cc5cc(CN6CCC(F)CC6)ccc5[nH]4)c3)cn2)cc1` [Example 73, 1-(4-isopropylbenzyl)-1H-pyrazole-4-carboxylic acid {5-[5-(4-fluoropiperidin-1-ylmethyl)-1H-indol-2-yl)-6-oxo-1,6-dihydropyridin-3-yl}-amide], which IC50 is on record?
**A.** The IC50 was less than 100 nM.

**Q.** With `Cc1ccc(Cn2cc(C(=O)Nc3c[nH]c(=O)c(-c4cc5cc(CN6C[C@@H](C)O[C@@H](C)C6)ccc5[nH]4)c3)cn2)cc1` [Example 74, 1-(4-Methyl-benzyl)-1H-pyrazole-4-carboxylic acid {5-[5-(cis-2,6-dimethyl-morpholin-4-ylmethyl)-1H-indol-2-yl]-6-oxo-1,6-dihydro-pyridin-3-yl}-amide] as the compound, how does the IC50 read?
**A.** The IC50 was less than 100 nM.

**Q.** For `CCN(CC)Cc1ccc2[nH]c(-c3cc(NC(=O)c4cnn(Cc5ccc(C)cc5)c4)c[nH]c3=O)cc2c1` [Example 75, 1-(4-Methyl-benzyl)-1H-pyrazole-4-carboxylic acid [5-(5-diethylaminomethyl-1H-indol-2-yl)-6-oxo-1,6-dihydro-pyridin-3-yl]-amide], which IC50 is on record?
**A.** The IC50 was less than 100 nM.

**Q.** Which IC50 does the source give for `C[C@@H]1CN(Cc2ccc3[nH]c(-c4cc(NC(=O)c5cnn(Cc6ccc(F)cc6)c5)c[nH]c4=O)cc3c2)C[C@H](C)O1` [Example 76, 1-(4-Fluoro-benzyl)-1H-pyrazole-4-carboxylic acid {5-[5-(cis-2,6-dimethyl-morpholin-4-ylmethyl)-1H-indol-2-yl]-6-oxo-1,6-dihydro-pyridin-3-yl}-amide] here?
**A.** Its IC50 is less than 100 nM.

**Q.** For `CN(Cc1ccc2[nH]c(-c3cc(NC(=O)c4cnn(Cc5ccccc5)c4)c[nH]c3=O)cc2c1)C1CCCCC1` [Example 77], which IC50 is on record?
**A.** Its IC50 is less than 100 nM.

**Q.** For `COCCN(C)Cc1ccc2[nH]c(-c3cc(NC(=O)c4cnn(Cc5ccccc5)c4)c[nH]c3=O)cc2c1` [Example 79, 1-Benzyl-1H-pyrazole-4-carboxylic acid [5-(5-{1(2-methoxy-ethyl)-methyl-aminol-methyl}-1H-indol-2-yl)-6-oxo-1,6-dihydro-pyridin-3-yl]-amide], which IC50 is on record?
**A.** Its IC50 is less than 100 nM.

**Q.** For `O=C(Nc1c[nH]c(=O)c(-c2cc3cc(CN4CCCCC4)ccc3[nH]2)c1)c1cnn(Cc2ccc(F)cc2)c1` [Example 80, 1-(4-Fluoro-benzyl)-1H-pyrazole-4-carboxylic acid [6-oxo-5-(5-piperidin-1-ylmethyl-1H-indol-2-yl)-1,6-dihydro-pyridin-3-yl]-amide], which IC50 is on record?
**A.** The IC50 was less than 100 nM.

**Q.** Which IC50 does the source give for `O=C(Nc1c[nH]c(=O)c(-c2cc3cc(CN4CCC(F)CC4)ccc3[nH]2)c1)c1cnn(Cc2ccc(F)cc2)c1` [Example 81, 1-(4-Fluoro-benzyl)-1H-pyrazole-4-carboxylic acid {5-[5-(4-fluoro-piperidin-1-ylmethyl)-1H-indol-2-yl]-6-oxo-1,6-dihydro-pyridin-3-yl}-amide] here?
**A.** Its IC50 is less than 100 nM.
